Measured values as given in patent US11065214B1, “Combination therapies with disulfiram” (Spring Discovery, Inc., priority 2020, dated 2021).

Legend:
[1] = molecular target: transient receptor potential melastatin 8 (TRPM8) (Homo sapiens, UniProt Q7Z2W7); conditions: increase of [Ca2+]i; cited from earlier work
Spodoptera litum larvae = conditions: cited from earlier work
[2] = tested on: most gram-positive and some gram-negative bacteria; conditions: cited from earlier work
SAMP8 mice = conditions: intragastric, 4-month-old SAMP8 mice, 2 months; cited from earlier work
CYP2C8 = CYP2C8 (Homo sapiens, UniProt P10632); conditions: cited from earlier work
CYP2C8, sequence (P10632 whole entry): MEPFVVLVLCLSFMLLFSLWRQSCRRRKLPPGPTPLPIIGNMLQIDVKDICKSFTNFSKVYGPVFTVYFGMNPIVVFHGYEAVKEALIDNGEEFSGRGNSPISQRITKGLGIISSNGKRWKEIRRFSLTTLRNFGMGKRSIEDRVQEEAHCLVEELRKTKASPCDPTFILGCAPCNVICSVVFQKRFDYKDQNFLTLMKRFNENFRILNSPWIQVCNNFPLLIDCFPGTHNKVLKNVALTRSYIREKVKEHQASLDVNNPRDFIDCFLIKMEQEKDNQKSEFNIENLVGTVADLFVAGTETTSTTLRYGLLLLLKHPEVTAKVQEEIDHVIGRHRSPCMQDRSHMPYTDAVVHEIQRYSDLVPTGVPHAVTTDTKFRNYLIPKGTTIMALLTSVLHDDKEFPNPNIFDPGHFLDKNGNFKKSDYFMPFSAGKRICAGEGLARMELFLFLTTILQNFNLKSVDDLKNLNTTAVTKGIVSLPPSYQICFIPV

CYP2C9 = CYP2C9 (Homo sapiens, UniProt P11712); conditions: cited from earlier work
CYP2C9, sequence (P11712 whole entry, species assumed): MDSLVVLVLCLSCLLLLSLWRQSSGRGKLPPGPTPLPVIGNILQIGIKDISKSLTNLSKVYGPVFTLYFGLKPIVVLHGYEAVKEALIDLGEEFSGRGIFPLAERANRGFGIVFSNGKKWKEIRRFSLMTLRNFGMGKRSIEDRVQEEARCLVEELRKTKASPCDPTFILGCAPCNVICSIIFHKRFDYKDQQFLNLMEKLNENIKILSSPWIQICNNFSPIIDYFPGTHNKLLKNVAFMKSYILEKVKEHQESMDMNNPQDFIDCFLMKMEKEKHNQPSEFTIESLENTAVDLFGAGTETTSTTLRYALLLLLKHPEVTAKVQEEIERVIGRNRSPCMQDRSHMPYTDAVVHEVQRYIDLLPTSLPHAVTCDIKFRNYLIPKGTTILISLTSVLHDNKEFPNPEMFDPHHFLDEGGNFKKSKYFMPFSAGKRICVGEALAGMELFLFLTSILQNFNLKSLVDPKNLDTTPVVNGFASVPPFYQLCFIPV

CYP2C19 = CYP2C19 (Homo sapiens, UniProt P33261); conditions: cited from earlier work
CYP2C19, sequence (P33261 whole entry, species assumed): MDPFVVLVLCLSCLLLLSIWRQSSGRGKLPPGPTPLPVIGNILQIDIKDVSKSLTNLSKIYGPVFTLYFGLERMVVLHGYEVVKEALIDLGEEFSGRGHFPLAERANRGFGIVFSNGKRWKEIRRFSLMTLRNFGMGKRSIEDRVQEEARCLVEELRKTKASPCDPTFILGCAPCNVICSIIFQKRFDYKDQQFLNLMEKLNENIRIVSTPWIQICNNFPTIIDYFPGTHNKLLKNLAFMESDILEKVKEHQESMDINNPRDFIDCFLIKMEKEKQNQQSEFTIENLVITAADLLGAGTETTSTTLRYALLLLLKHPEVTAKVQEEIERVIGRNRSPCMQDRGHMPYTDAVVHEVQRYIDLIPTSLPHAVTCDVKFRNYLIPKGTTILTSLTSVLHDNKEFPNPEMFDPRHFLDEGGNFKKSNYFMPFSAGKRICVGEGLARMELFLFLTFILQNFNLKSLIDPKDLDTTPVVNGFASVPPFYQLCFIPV

severe sepsis = conditions: patients with severe sepsis, placebo cohort 24%; cited from earlier work
brain blood flow = conditions: 450 mg/kg during a 15-minute period, after simvastatin 2 mg/kg subcutaneously daily for 14 days, SV-129 mice; cited from earlier work
[3] = 510 mg/day, patients, cited from earlier work
[4] = molecular target: N-methyl-D-aspartate receptors (NMDARs); conditions: glycine-binding site; read-out: KB, competitive antagonist of NMDARs; cited from earlier work
SIRT1 = SIRT1 (Homo sapiens, UniProt Q96EB6); conditions: cited from earlier work
SIRT1, sequence (Q96EB6 whole entry, species assumed): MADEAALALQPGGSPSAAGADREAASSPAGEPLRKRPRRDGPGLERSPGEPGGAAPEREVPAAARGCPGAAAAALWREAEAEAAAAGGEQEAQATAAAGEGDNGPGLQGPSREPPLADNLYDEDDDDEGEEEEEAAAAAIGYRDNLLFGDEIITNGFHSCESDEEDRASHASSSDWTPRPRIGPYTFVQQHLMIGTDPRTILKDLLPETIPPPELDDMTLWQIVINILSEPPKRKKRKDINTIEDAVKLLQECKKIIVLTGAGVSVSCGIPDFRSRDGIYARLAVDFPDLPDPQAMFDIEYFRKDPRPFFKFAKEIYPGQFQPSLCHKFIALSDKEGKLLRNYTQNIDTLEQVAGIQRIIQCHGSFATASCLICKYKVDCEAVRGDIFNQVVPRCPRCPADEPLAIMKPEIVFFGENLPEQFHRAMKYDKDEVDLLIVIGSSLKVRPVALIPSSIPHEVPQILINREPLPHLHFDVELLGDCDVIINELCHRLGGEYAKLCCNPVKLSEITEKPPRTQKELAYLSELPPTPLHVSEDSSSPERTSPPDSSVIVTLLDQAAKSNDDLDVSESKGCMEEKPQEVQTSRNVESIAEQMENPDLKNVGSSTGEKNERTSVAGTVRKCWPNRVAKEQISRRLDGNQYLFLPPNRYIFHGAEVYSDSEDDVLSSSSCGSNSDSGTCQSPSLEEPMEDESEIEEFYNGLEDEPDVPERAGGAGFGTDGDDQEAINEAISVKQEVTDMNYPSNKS

[5] = static toxicity tests; cited from earlier work
[6] = tested on: mouse skin carcinogenesis; conditions: cited from earlier work
carrageenan = conditions: 25, 50 or 100 mg/kg, i.p., immediately and 2 h after carrageenan; cited from earlier work
[7] = tested on: fever induced by lipopolysaccharide (LPS); conditions: 50 or 100 mg/kg, i.p., 0 and 2 h; rats; cited from earlier work
[8] = molecular target: cyclo-oxygenase-2 (COX-2) (Homo sapiens, UniProt P35354); conditions: independently of NF-κB activation; cited from earlier work
cyclo-oxygenase-2 (COX-2), sequence (P35354 18-604, species assumed): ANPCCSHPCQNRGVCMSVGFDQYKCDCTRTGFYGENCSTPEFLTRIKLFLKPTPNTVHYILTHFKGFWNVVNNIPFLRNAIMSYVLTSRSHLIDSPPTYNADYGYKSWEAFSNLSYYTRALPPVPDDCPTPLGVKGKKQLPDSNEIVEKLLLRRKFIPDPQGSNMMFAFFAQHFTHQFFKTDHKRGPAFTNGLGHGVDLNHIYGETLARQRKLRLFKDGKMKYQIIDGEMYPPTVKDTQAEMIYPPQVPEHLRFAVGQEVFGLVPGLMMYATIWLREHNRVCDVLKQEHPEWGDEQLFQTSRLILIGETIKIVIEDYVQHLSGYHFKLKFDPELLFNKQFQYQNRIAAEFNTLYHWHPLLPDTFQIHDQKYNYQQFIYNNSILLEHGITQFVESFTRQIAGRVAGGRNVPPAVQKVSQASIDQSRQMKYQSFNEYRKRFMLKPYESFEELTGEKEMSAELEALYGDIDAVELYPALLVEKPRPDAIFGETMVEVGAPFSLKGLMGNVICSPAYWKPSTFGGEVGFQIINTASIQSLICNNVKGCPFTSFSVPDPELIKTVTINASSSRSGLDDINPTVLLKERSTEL

[9] = tested on: fibroblasts, peripheral blood mononuclear cells (PBMCs), myoblasts; assay: Reversal of aging (predicted age) in cultured young/old cells contacted with disulfiram plus potentiating ingredients; format: cell-based; conditions: concentrations 0.000005 to 80 μM; potentiating ingredient as high as 25 μM
THP1 HMGB1 Lucia cells = assay: Pyroptosis inhibition luciferase assay, LPS + nigericin, HMGB1 reporter (QUANTI-Luc); format: cell-based; conditions: compound alone; 1 μg/ml LPS 3 h, then 10 μM nigericin 3 h
neuroblastoma cells = conditions: cited from earlier work
influenza virus H1N1 = conditions: cited from earlier work
[10] = tested on: ProDH (proline dehydrogenase); conditions: competitive; plants; cited from earlier work
[11] = doses up to 750 mg/kg bw; cited from earlier work
[12] = rats, doses up to 2000 mg/kg bw; cited from earlier work

transient receptor potential melastatin 8 (TRPM8), sequence (Q7Z2W7 whole entry, species assumed): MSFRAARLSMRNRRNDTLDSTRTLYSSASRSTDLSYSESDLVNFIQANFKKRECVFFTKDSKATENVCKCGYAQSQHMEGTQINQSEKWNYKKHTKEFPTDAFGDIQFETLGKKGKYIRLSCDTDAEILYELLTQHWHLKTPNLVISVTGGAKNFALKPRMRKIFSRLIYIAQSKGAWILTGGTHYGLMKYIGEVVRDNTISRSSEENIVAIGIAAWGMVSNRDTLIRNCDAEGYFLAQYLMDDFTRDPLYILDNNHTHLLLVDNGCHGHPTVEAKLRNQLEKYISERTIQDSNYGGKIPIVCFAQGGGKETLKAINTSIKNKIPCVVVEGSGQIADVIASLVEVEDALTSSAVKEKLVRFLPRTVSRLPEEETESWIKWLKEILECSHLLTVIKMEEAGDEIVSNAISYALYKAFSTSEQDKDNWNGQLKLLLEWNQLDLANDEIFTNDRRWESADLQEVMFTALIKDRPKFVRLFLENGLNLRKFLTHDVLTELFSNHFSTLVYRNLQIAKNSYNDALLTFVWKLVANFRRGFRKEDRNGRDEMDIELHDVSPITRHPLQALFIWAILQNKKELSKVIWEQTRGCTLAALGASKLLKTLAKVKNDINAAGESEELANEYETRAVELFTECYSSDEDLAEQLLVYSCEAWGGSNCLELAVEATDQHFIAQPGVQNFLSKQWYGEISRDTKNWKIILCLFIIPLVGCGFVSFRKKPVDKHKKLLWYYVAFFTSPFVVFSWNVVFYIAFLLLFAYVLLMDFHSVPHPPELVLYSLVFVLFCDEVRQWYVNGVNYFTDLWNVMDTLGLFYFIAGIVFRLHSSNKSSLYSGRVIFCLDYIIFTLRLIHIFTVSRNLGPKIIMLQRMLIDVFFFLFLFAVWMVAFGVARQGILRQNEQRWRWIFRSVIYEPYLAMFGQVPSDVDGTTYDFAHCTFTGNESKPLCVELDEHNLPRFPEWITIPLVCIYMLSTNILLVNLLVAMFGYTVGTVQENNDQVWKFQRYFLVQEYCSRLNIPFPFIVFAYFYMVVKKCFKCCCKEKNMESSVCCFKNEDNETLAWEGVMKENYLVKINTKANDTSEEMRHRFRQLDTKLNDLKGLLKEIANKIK

CC1CCC(C(C)C)C(O)C1 (single isomer, unassigned; (-)) [(−)-Menthol]
binding and activation of TRPM8 [1]: (−)-Menthol is a key component of peppermint oil that binds and activates

CCCC=C1OC(=O)c2ccccc21 [3-Butylidenephthalide]
LC50, larvicidal activity (Spodoptera litum larvae): activity (LC50 of 1.56 mg/g for Spodoptera litum larvae).

O=C(O)c1ccc(O)cc1 [4-Hydroxybenzoic acid]
IC50, inhibition of most gram-positive and some gram-negative bacteria [2]: IC50 of 160 μg/mL.

CCCCC1OC(=O)c2ccccc21 (centres unmarked) [Butylphthalide]
spatial learning and memory ability (SAMP8 mice): 2 months significantly improved spatial learning and memory ability.

C[C@@H]1CC[C@H]2C(C)(C)[C@H]3C[C@@]12CC[C@@]3(C)O [Cedrol]
inhibitory effect on CYP2C8 (CYP2C8): weak
inhibitory effect on CYP2C9 (CYP2C9): weak
inhibitory effect on CYP2C19 (CYP2C19): weak

N=C(N)NCCC[C@H](N)C(=O)O [L-Arginine]
Resolution of shock at 72 hours, share of patients (severe sepsis): 72 hours is achieved by 40% and 24% of the patients in the L-Arginine
hyperemia (brain blood flow): minute period) amplifies and sustains the hyperemia (38%) and increases

C[N+](C)(C)C[C@H](O)CC(=O)[O-] [L-Carnitine]
total time for dozing off during the daytime ([3]; versus placebo-treated periods): L-carnitine (Levocarnitine) treatment significantly improved the total
serum acylcarnitine levels [3]: L-carnitine (Levocarnitine) efficiently increased serum acylcarnitine
serum triglycerides concentration [3]: levels, and reduced serum triglycerides concentration.

N[C@@H](Cc1ccccc1)C(=O)O [L-Phenylalanine]
Kb [4]: 573 µM

NC(=O)c1cccnc1 [Nicotinamide]
inhibition of SIRT1 (SIRT1): reactions. Nicotinamide is an inhibitor of SIRT1.

CCCCCCCCC(=O)NCc1ccc(O)c(OC)c1 [Nonivamide]
4d-EC50 [5]: 5.1 mg/L in static toxicity tests.

CCCCCCCC(=O)CCc1ccc(O)c(OC)c1 [Paradol]
inhibition of tumor promotion [6]: Zingiberaceae plants. Paradol is an effective inhibitor of tumor promotion

Cc1cc2nc3c(=O)[nH]c(=O)nc-3n(C[C@H](O)[C@H](O)[C@H](O)CO)c2cc1C [Riboflavin]
antiedema and antinociceptive effects (carrageenan): induced antiedema and antinociceptive effects. The antinociceptive effect
effect on LPS-induced fever [7]: inhibited the fever induced by lipopolysaccharide (LPS) in rats.

O=C(O)c1ccccc1O [Salicylic acid]
inhibition of COX-2 activity [8]: Salicylic acid (2-Hydroxybenzoic acid) inhibits cyclo-oxygenase-2

CC(C)(C)c1cc(O)ccc1O [TBHQ, tert-Butylhydroquinone]
ability in combination with disulfiram to reverse aging in the cells [9]: identified as a potentiating ingredient
pyroptosis inhibition (HMGB1 luciferase reporter in supernatant) (THP1 HMGB1 Lucia cells): no effect on pyroptosis inhibition or a clear IC50

COc1cc(CCC(C)=O)ccc1O [Zingerone]
growth of neuroblastoma cells (neuroblastoma cells): agent, and inhibits the growth of neuroblastoma cells.

OC[C@H]1O[C@@H]2O[C@H]3[C@H](O)[C@@H](O)[C@@H](O[C@H]4[C@H](O)[C@@H](O)[C@@H](O[C@H]5[C@H](O)[C@@H](O)[C@@H](O[C@H]6[C@H](O)[C@@H](O)[C@@H](O[C@H]7[C@H](O)[C@@H](O)[C@@H](O[C@H]8[C@H](O)[C@@H](O)[C@@H](O[C@H]1[C@H](O)[C@H]2O)O[C@@H]8CO)O[C@@H]7CO)O[C@@H]6CO)O[C@@H]5CO)O[C@@H]4CO)O[C@@H]3CO [β-Cyclodextrin]
anti-influenza virus activity (influenza virus H1N1): Cyclodextrin has anti-influenza virus H1N1 activities.

D-(-)-Lactic acid
inhibition of ProDH [10]: inhibitor of ProDH (proline dehydrogenase) in plants.

Rebaudioside A
genotoxic effects, mouse micronucleus test [11]: rebaudioside A do not cause any genotoxic effects at any of the doses
genotoxic effects, unscheduled DNA synthesis test [12]: rebaudioside A do not cause any genotoxic effects at any of the doses
